From patent publication US20250154169A1, “COMPOUNDS AND METHODS FOR MODULATING SPLICING” (REMIX THERAPEUTICS INC., priority 2021, published 2025)
Read-outs that look alike come from different tables or passages of the source.

Tests used:
MYB mRNA = experiment: Splicing RT-qPCR assay, MYB canonical (CJ) and alternative (AJ) junction mRNA; type: cell-based, human; conditions: Homo sapiens, A673 or K562 cells, 24 hours compound treatment, RT-qPCR; for AC50: read-out: MYB AJ (AC50, increase in alternative junction mRNA); for IC50: read-out: MYB CJ (IC50, decrease in canonical junction mRNA)
Procedure, shortened: (§1)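 Compound-induced exon inclusion is tracked as an increase in AJ transcript alongside the CJ transcript. Cells (A673 normalized to PPIA; K562 to GAPDH or GUSB) are dosed 24 h with a serial dilution topping at 10 uM, ≤0.25% DMSO, then lysed and analysed by RT-qPCR in at least duplicate.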

HTT mRNA = experiment: Splicing RT-qPCR assay, HTT canonical (CJ) and alternative (AJ) junction mRNA; type: cell-based, human; conditions: Homo sapiens, A673 or K562 cells, 24 hours compound treatment; for IC50: read-out: HTT CJ (IC50, decrease in canonical junction mRNA); for AC50: read-out: HTT AJ (AC50, increase in alternative junction mRNA)
Procedure, shortened: as §1

SMILES | AC50 (MYB mRNA; 24 h) | IC50 (MYB mRNA; 24 h) | IC50 (HTT mRNA; 24 h) | AC50 (HTT mRNA) | AC50 (MYB mRNA) | IC50 (MYB mRNA) | IC50 (HTT mRNA)
CCn1cc2c(N3CCC(NC4C5COCC54)CC3)ccc(C(=O)Nc3cc(F)c4nc(C)cn4c3)c2n1 (stereo not shown) [Compound 581, 2-ethyl-N-{8-fluoro-2-methylimidazo[1,2-a]pyridin-6-yl}-4-(4-{3-oxabicyclo[3.1.0]hexan-6-ylamino}piperidin-1-yl) indazole-7-carboxamide] | 100 to 1000 nM | 100 to 1000 nM | 1000 to 10000 nM | 1000 to 10000 nM | – | – | –
CCn1cc2c(N3CCNCC3)ccc(C(=O)Nc3cc(F)c4nc(CO)oc4c3)c2n1 [Compound 582, 2-ethyl-N-[4-fluoro-2-(hydroxymethyl)-1,3-benzoxazol-6-yl]-4-(piperazin-1-yl) indazole-7-carboxamide] | 100 to 1000 nM | 100 to 1000 nM | 100 to 1000 nM | 100 to 1000 nM | – | – | –
CCn1cc2c(N3C[C@@H](F)[C@H](NC)C3)ccc(C(=O)Nc3cc(F)c4nc(C)cn4c3)c2n1 [Compound 584, 2-ethyl-N-{8-fluoro-2-methylimidazo[1,2-a]pyridin-6-yl}-4-[(3R,4R)-3-fluoro-4-(methylamino)pyrrolidin-1-yl]indazole-7-carboxamide] | 100 to 1000 nM | 100 to 1000 nM | 1000 to 10000 nM | 1000 to 10000 nM | – | – | –
CCn1cc2c(N3C[C@H](F)[C@H](NC)C3)ccc(C(=O)Nc3cc(F)c4nc(C)cn4c3)c2n1 [Compound 585, cis-2-ethyl-N-(8-fluoro-2-methylimidazo[1,2-a]pyridin-6-yl)-4-((3S,4R)-3-fluoro-4-(methylamino)pyrrolidin-1-yl)-2H-indazole-7-carboxamide bis(2,2,2-trifluoroacetate)] | 100 to 1000 nM | 100 to 1000 nM | > 10000 nM | > 10000 nM | – | – | –
Cc1cn2cc(NC(=O)c3c(F)cc(N4CC[C@@H](NC5(C#N)CC5)C4)c4cn(C)nc34)cc(F)c2n1 [Compound 587, 4-[(3R)-3-[(1-cyanocyclopropyl)amino]pyrrolidin-1-yl]-6-fluoro-N-{8-fluoro-2-methylimidazo[1,2-a]pyridin-6-yl}-2-methylindazole-7-carboxamide] | 100 to 1000 nM | 100 to 1000 nM | 100 to 1000 nM | 100 to 1000 nM | – | – | –
Cc1cn2cc(NC(=O)c3ccc(N4CCN[C@@H](C(C)C)C4)c4cn(C)nc34)cc(F)c2n1 [Compound 589, N-{8-fluoro-2-methylimidazo[1,2-a]pyridin-6-yl}-4-[(3S)-3-isopropylpiperazin-1-yl]-2-methylindazole-7-carboxamide] | 1000 to 10000 nM | 100 to 1000 nM | > 10000 nM | > 10000 nM | – | – | –
CCn1cc2c(N3CCC(NC4(CO)CC4)CC3)ccc(C(=O)Nc3cc(F)c4nc(C)cn4c3)c2n1 [Compound 590] | 100 to 1000 nM | 100 to 1000 nM | 1000 to 10000 nM | 1000 to 10000 nM | – | – | –
CCn1cc2c(N3C[C@H](C)N[C@@H](C)C3)ccc(C(=O)Nc3cc(F)c4nc(C)cn4c3)c2n1 [Compound 592] | 100 to 1000 nM | 100 to 1000 nM | 1000 to 10000 nM | > 10000 nM | – | – | –
Cc1cn2cc(NC(=O)c3ccc(N4CC[C@@H](NCc5ncccn5)C4)c4cn(C)nc34)cc(F)c2n1 [Compound 594, N-{8-fluoro-2-methylimidazo[1,2-a]pyridin-6-yl}-2-methyl-4-[(3R)-3-[(pyrimidin-2-ylmethyl)amino]pyrrolidin-1-yl]indazole-7-carboxamide] | 1000 to 10000 nM | 100 to 1000 nM | > 10000 nM | > 10000 nM | – | – | –
Cc1cn2cc(NC(=O)c3ccc(N4CC[C@@H](NC5(C#N)CC5)C4)c4cn(C)nc34)cc(F)c2n1 [Compound 596, 4-[(3R)-3-[(1-cyanocyclopropyl)amino]pyrrolidin-1-yl]-N-{8-fluoro-2-methylimidazo[1,2-a]pyridin-6-yl}-2-methylindazole-7-carboxamide] | 1000 to 10000 nM | 1000 to 10000 nM | > 10000 nM | > 10000 nM | – | – | –
Cc1cn2cc(NC(=O)c3ccc(N4CC[C@@H](NC5(C)CC5)C4)c4cn(C)nc34)cc(F)c2n1 [Compound 598] | 100 to 1000 nM | < 100 nM | 1000 to 10000 nM | 1000 to 10000 nM | – | – | –
CCn1cc2c(N3C[C@@H](C)N[C@@H](C(C)C)C3)ccc(C(=O)Nc3cc(F)c4nc(C)cn4c3)c2n1 [Compound 600, 2-ethyl-N-{8-fluoro-2-methylimidazo[1,2-a]pyridin-6-yl}-4-[(3S,5R)-3-isopropyl-5-methylpiperazin-1-yl] indazole-7-carboxamide] | 1000 to 10000 nM | 1000 to 10000 nM | > 10000 nM | > 10000 nM | – | – | –
Cc1cn2cc(NC(=O)c3ccc(N4CC[C@@H](NC5CC(O)C5)C4)c4cn(C)nc34)cc(F)c2n1 (stereo partly shown) [Compound 602] | 100 to 1000 nM | < 100 nM | 1000 to 10000 nM | 1000 to 10000 nM | – | – | –
Cc1cn2cc(NC(=O)c3ccc(N4CC[C@H](NC5CC(O)C5)C4)c4cn(C)nc34)cc(F)c2n1 (stereo partly shown) [Compound 603] | > 10000 nM | 1000 to 10000 nM | > 10000 nM | > 10000 nM | – | – | –
CCn1cc2c(N3CCNCC3)ccc(C(=O)Nc3cn4cc(C)nc4c(Cl)n3)c2n1 [Compound 604, N-{8-chloro-2-methylimidazo[1,2-a]pyrazin-6-yl}-2-ethyl-4-(piperazin-1-yl) indazole-7-carboxamide] | 1000 to 10000 nM | 1000 to 10000 nM | > 10000 nM | > 10000 nM | – | – | –
Cc1cn2cc(NC(=O)c3ccc(N4CCN[C@@H](C5CC5)C4)c4cn(C)nc34)cc(F)c2n1 [Compound 606, 4-[(3S)-3-cyclopropylpiperazin-1-yl]-N-{8-fluoro-2-methylimidazo[1,2-a]pyridin-6-yl}-2-methylindazole-7-carboxamide] | 100 to 1000 nM | 100 to 1000 nM | 100 to 1000 nM | 1000 to 10000 nM | – | – | –
Cc1cn2cc(NC(=O)c3ccc(N4CCN[C@H](C5CC5)C4)c4cn(C)nc34)cc(F)c2n1 [Compound 607, 4-[(3R)-3-cyclopropylpiperazin-1-yl]-N-{8-fluoro-2-methylimidazo[1,2-a]pyridin-6-yl}-2-methylindazole-7-carboxamide] | 100 to 1000 nM | 100 to 1000 nM | 1000 to 10000 nM | 1000 to 10000 nM | – | – | –
CN[C@@H]1CCN(c2ccc(C(=O)Nc3cn4cc(C)nc4c(Oc4ccccc4)n3)c3nn(C)cc23)C1 [Compound 610, 2-methyl-N-{2-methyl-8-phenoxyimidazo[1,2-a]pyrazin-6-yl}-4-[(3R)-3-(methylamino)pyrrolidin-1-yl]indazole-7-carboxamide] | 100 to 1000 nM | 100 to 1000 nM | > 10000 nM | 1000 to 10000 nM | – | – | –
CN[C@@H]1CCN(c2ccc(C(=O)Nc3cn4cc(C)nc4c(N4CCOCC4)n3)c3nn(C)cc23)C1 [Compound 612, 2-methyl-N-[2-methyl-8-(morpholin-4-yl)imidazo[1,2-a]pyrazin-6-yl]-4-[(3R)-3-(methylamino)pyrrolidin-1-yl]indazole-7-carboxamide] | > 10000 nM | > 10000 nM | > 10000 nM | > 10000 nM | – | – | –
CN[C@@H]1CCN(c2ccc(C(=O)Nc3cn4cc(C)nc4c(Cl)n3)c3nn(C)cc23)C1 [Compound 614] | 100 to 1000 nM | 100 to 1000 nM | > 10000 nM | > 10000 nM | – | – | –
CCn1cc2c(N3C[C@@H](C)N[C@@H](C4CC4)C3)ccc(C(=O)Nc3cc(F)c4nc(C)cn4c3)c2n1 [Compound 616, 4-((3S,5R)-3-cyclopropyl-5-methylpiperazin-1-yl)-2-ethyl-N-(8-fluoro-2-methylimidazo[1,2-a]pyridin-6-yl)-2H-indazole-7-carboxamide] | 100 to 1000 nM | 100 to 1000 nM | 100 to 1000 nM | 1000 to 10000 nM | – | – | –
CCn1cc2c(N3C[C@@H](C4CC4)N[C@@H](C)C3)ccc(C(=O)Nc3cc(F)c4nc(C)cn4c3)c2n1 [Compound 617, 4-((3R,5S)-3-cyclopropyl-5-methylpiperazin-1-yl)-2-ethyl-N-(8-fluoro-2-methylimidazo[1,2-a]pyridin-6-yl)-2H-indazole-7-carboxamide] | 1000 to 10000 nM | 100 to 1000 nM | 1000 to 10000 nM | > 10000 nM | – | – | –
CCn1cc2c(N3CC[C@@H](N(C)C)C3)cc(Cl)c(C(=O)Nc3cc(F)c4nc(C)cn4c3)c2n1 [Compound 619, 6-chloro-4-[(3R)-3-(dimethylamino)pyrrolidin-1-yl]-2-ethyl-N-{8-fluoro-2-methylimidazo[1,2-a]pyridin-6-yl}indazole-7-carboxamide] | 100 to 1000 nM | 100 to 1000 nM | > 10000 nM | > 10000 nM | – | – | –
Cc1cn2cc(NC(=O)c3ccc(N4CC[C@@H](N5C[C@@H](C)N[C@@H](C)C5)C4)c4cn(C)nc34)cc(F)c2n1 [Compound 621, 4-[(3R)-3-[(3R,5S)-3,5-dimethylpiperazin-1-yl]pyrrolidin-1-yl]-N-{8-fluoro-2-methylimidazo[1,2-a]pyridin-6-yl}-2-methylindazole-7-carboxamide] | 100 to 1000 nM | 1000 to 10000 nM | > 10000 nM | > 10000 nM | – | – | –
Cc1cn2cc(NC(=O)c3ccc(N4CCC(N5C6CNCC65)C4)c4cn(C)nc34)cc(F)c2n1 (stereo not shown) [Compound 622, 4-(3-{3,6-diazabicyclo[3.1.0]hexan-6-yl}pyrrolidin-1-yl)-N-{8-fluoro-2-methylimidazo[1,2-a]pyridin-6-yl}-2-methylindazole-7-carboxamide] | – | – | – | > 10000 nM | > 10000 nM | 1000 to 10000 nM | > 10000 nM
